One test concerns the target Paired box protein Pax-8 (Homo sapiens, UniProt Q06710). As to the kind of experiment: PAX8 transcriptional activity inhibition in RMG-I – RMG-I cells, luciferase, cherry-pick, dose response (AID 687027).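 Also: luciferase reporter driven by Pax8 target thyroperoxidase promoter measured by SteadyGlo luminescence.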 The format is functional, cell-based.
Test [1] addresses Serine/threonine-protein phosphatase (Homo sapiens, UniProt Q9BPW0). As to the kind of experiment: inhibition of protein phosphatase 5 activity – biochemical, fluorescence, dose response (AID 2395).
Another test concerns the target T1, Caspase-3 (Homo sapiens, UniProt P42574).
T1 sequence (P42574 whole entry): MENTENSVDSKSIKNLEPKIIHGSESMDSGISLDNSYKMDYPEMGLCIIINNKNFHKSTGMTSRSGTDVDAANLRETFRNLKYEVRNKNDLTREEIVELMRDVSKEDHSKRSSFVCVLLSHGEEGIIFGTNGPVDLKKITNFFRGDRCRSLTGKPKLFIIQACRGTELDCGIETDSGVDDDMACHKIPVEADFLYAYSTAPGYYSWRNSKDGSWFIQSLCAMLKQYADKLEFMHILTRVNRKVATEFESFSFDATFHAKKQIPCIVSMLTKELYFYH
The test can be described thus: SAR Analysis of small molecule inhibitors of Sentrin-specific proteases (SENPs) using a Caspase-3 Selectivity assay. [Related pubchem assays (depositor defined):AID2540, AID2599, AID434973, AID489001]. The test is classed as functional.

Test [2] addresses Kappa-type opioid receptor (Homo sapiens, UniProt P41145). The format is functional.
Test [3] deals with T2, Replicative DNA helicase DnaB (Mycobacterium tuberculosis, UniProt P9WMR3).
T2 sequence (P9WMR3 whole entry): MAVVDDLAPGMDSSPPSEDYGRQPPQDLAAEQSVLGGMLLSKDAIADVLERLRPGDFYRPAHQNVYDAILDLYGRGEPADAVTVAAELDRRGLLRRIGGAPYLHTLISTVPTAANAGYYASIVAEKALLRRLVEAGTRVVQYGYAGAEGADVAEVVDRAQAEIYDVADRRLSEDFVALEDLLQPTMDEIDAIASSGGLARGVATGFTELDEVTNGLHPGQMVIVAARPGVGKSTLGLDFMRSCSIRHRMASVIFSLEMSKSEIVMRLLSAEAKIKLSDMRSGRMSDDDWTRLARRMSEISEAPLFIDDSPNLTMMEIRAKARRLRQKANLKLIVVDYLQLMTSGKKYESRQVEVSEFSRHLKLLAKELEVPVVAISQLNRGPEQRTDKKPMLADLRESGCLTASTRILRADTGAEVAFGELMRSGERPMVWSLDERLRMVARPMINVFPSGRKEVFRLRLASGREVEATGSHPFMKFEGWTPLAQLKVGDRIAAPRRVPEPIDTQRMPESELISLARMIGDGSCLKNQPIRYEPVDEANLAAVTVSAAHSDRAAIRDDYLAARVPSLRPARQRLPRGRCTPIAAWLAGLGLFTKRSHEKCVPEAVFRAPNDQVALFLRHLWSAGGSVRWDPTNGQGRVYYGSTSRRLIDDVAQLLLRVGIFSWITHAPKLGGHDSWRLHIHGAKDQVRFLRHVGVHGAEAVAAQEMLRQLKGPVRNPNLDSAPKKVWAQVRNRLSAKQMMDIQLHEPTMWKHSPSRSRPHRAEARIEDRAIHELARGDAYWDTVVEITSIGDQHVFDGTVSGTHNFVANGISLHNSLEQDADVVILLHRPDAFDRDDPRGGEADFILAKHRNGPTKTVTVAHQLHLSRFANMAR
As to the kind of experiment: DnaB intein splicing inhibitors, dose response, biochemical, cell-free fluorescence (AID 449749). The test is classed as functional.

Test [4] in a line: non-specific 3'UTR reporter inhibition in Clone20-Shn3RL – cell-based, Renilla luciferase, cherry-picked, counter-screen for Shn3 inhibitor project, dose response (AID 624133). The format is functional.
The nature of test [5]: reduction of Shn3 3'UTR-driven luciferase in osteoblasts – cell-based, Clone20 osteoblasts, firefly luciferase, cherry-picked, dose response (AID 624132).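 Also: firefly luciferase luminescence from reporter carrying the Shn3 3'UTR in osteoblasts.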 The test is classed as functional.
The nature of test [6]: toxicity toward HepG2 liver cells – cell-based, plate reader, cherry-pick, antagonist series, cytotoxicity control, dose response (AID 743416). The format is functional.
A short description of test [7]: loss of viability in HepG2 cells – cell-based, CellTiter-Glo, cherry-picked, cytotoxicity control for Shn3 inhibitor project, dose response (AID 624134). The format is functional. On the technique in general: ATP-based viability assays read luminescence as a measure of living cells.
The target of test [8] is Sphingosine 1-phosphate receptor 1 (Homo sapiens, UniProt P21453). The format is functional.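 Also: Tango beta-arrestin reporter U2OS cells stimulated with S1P near its EC80; inhibitor potency meaning antagonism of receptor activation by the natural agonist.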
Chain of Sphingosine 1-phosphate receptor 1 (P21453 whole entry): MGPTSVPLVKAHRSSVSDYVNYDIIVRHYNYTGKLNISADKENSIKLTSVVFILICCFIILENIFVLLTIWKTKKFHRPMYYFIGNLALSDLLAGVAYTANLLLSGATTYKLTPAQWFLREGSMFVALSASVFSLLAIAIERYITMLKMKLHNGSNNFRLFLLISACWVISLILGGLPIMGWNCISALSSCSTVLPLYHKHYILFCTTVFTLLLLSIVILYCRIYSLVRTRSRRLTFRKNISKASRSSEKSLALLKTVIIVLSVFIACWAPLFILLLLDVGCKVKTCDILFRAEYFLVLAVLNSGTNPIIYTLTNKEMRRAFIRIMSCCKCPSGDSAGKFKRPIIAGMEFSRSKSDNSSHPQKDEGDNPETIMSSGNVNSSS
A short description of test [9]: fluconazole-exposed Candida albicans growth modulators – fluorescence, retest, confirmation (AID 2467). The format is functional, cell-based.
The next test has as its system INS1. The test can be described thus: INS-1E survival protection against cytokine death – cell-based, luminescence, retest, dose response (AID 449756).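 Also: cell death triggered by IL-1 beta plus TNF-alpha plus IFN-gamma mixture; protective hits raise ATP signal compared with cytokine alone wells.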 The format is functional. Conditions: Rattus norvegicus.
For the next test, the target named is T3, Streptokinase A (Streptococcus pyogenes serotype M1, UniProt P10520).
T3 sequence (P10520 whole entry): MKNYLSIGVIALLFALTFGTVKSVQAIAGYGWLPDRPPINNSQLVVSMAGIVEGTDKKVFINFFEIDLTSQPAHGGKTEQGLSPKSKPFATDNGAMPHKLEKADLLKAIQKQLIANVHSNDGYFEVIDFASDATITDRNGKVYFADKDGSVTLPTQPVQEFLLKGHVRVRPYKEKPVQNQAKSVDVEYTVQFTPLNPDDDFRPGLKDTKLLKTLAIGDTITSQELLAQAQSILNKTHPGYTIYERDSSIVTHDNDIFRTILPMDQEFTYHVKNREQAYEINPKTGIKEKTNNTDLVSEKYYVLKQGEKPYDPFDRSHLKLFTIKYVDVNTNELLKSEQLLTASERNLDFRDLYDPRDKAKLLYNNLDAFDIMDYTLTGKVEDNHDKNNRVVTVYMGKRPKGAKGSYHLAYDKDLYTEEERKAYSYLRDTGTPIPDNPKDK
The test can be described thus: viability-normalized secreted streptokinase activity reduction – plasminogen activation absorbance, OD405, dose response (AID 1914).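 Also: secreted streptokinase activity via plasminogen activation per viability signal from cell pellet.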 The test is classed as functional, Streptococcus pyogenes M1 GAS.

Test [10] concerns the target T4, Microphthalmia-associated transcription factor (Homo sapiens, UniProt O75030).
T4 sequence (O75030 whole entry): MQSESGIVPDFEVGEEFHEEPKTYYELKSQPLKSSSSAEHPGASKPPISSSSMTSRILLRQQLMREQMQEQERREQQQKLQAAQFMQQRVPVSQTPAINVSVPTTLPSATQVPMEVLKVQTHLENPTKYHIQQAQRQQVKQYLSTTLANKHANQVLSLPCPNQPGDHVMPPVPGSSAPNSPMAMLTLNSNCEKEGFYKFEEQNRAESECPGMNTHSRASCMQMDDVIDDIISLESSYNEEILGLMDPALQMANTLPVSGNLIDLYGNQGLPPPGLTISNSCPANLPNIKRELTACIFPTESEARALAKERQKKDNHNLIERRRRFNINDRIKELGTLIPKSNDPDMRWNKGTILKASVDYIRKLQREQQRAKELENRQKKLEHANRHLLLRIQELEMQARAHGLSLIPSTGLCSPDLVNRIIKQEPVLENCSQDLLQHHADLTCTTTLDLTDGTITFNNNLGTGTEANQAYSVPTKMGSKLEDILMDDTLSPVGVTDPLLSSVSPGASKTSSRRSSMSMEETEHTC
As to the kind of experiment: reducers of TRPM1 reporter luminescence, concentration series – cell-based, SK-MEL-5, cherry-picked, set 3, MITF inhibitor project, dose response (AID 493073).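 Also: SK-MEL-5 melanoma cells with luciferase driven by the MITF target TRPM1 promoter.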 The format is functional.

The nature of a further test: cells. The test is classed as functional, cell-based.

Results on three compounds are retold here after ChEMBL document CHEMBL1201862, “PubChem BioAssay data set” (2004).

Active and inactive are the calls of the source.

Chain of Paired box protein Pax-8 (Q06710 whole entry): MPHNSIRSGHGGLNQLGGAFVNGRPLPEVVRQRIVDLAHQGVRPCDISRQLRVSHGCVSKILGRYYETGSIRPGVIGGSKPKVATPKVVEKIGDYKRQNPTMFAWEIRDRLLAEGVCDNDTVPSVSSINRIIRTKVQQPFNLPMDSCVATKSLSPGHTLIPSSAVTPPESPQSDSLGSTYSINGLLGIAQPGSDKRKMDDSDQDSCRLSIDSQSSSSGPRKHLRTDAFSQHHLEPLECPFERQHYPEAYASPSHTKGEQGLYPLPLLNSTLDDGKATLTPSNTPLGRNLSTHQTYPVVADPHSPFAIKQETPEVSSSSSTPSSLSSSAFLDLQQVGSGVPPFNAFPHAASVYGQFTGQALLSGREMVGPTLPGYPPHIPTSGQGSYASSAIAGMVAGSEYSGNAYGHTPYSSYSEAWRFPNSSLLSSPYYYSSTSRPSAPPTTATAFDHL
Chain of Serine/threonine-protein phosphatase (Q9BPW0 whole entry): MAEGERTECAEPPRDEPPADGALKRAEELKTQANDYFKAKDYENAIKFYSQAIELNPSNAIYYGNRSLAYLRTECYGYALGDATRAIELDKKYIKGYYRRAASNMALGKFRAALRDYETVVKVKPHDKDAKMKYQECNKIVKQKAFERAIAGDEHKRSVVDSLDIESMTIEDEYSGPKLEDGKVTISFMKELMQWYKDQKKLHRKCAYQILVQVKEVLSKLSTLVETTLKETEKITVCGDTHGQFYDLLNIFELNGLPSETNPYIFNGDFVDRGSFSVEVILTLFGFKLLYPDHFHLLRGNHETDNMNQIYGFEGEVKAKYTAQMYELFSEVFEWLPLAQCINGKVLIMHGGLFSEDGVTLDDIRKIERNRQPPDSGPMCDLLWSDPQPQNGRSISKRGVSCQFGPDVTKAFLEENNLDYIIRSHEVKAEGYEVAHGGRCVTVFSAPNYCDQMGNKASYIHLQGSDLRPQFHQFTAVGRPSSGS
Chain of Kappa-type opioid receptor (P41145 whole entry): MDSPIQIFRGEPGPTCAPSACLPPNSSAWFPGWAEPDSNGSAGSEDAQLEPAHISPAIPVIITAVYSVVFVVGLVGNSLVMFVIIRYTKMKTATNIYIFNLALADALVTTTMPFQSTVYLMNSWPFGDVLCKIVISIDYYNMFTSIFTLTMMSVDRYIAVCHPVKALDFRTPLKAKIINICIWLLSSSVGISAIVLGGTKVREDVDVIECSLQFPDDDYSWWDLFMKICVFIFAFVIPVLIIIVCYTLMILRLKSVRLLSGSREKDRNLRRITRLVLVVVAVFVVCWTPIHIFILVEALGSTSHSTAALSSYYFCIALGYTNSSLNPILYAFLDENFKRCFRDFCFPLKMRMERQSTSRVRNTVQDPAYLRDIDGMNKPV

Broadly, the AC50 is the concentration giving half of the maximal activity seen. As a reminder, the IC50 is the point on the concentration scale where inhibition reaches its midpoint. Take `Oc1ccc(/C=N\Nc2cc(N3CCOCC3)nc(N3CCOCC3)n2)c(O)c1`: the AC50 on Paired box protein Pax-8 is 20.4 µM (active). For the same compound, the values for the IC50 (in [1]; on Caspase-3) were 5.72 µM (active) and > 99 µM (inactive), respectively.
Turning to `COc1cc(NC(=O)Cn2ncc(Cl)c(Cl)c2=O)c(C)cc1[N+](=O)[O-]`, the figures for the IC50 in test [2] and in test [8] were 13.9 µM and > 49.8 µM (not active), respectively. Further, the AC50 is 26.6 µM (active) in test [3]; 3.3 µM (active) in test [4]; 3.44 µM (active) in test [5]; 9.1 µM (active) in [6]; 40.9 µM (active) in [7]; 4.62 µM (active) on Paired box protein Pax-8.
A word on the EC50: it is the concentration that produces a half-maximal response. With `Cc1ccc(C)c(S(=O)(=O)N2CCN(Cc3ccc(O)c4ncccc34)CC2)c1`, the AC50 in test [4] is 1.23 µM (active); in test [5], 2.84 µM (active); in [7], 5.3 µM (active); in the test with INS1, 2.48 µM (active); in [10], 4.44 µM (active). The figures for the EC50 (in [9]; at Streptokinase A; in the test “cells”) were 1.14 µM (active), > 150 µM (not active) and 7.58 µM (active), respectively.
